Test results taken from patent publication US20130149415A1, “Use of manganese for enhancing the growth of L.casei in mixed cultures” (priority 2010, published 2013).
Where two headings read alike, the source gives them in different places.

Assays:
[1] = test system: Lactobacillus casei subsp. rhamnosus DN-116 010; settings: for paracasei ou rhamnosus count. num. Mn/count. J + 1 / Count ufc/ml at +10° C. Count. J + 1 paracasei ou rhamnosus: 543 043 + 116 010
Method: (§1) The population of Lactobacillus casei subsp. paracasei, was evaluated at J+3 by cell count analysis. Cell count analysis was performed by serial dilutions of the fermented medium with tryptone salt solution, and plating on Petri dishes with appropriate agar medium: MRS Agar containing 1.5 g/l of BactoOXGALL (DIFCO) for Lactobacillus casei.
(§2) Petri dishes were incubated at 37° C. during 96 H in anaerobic conditions (5% CO2).
(§3) The same experimentations as in Example 1 were performed with co-cultures of Lactobacillus casei subsp. paracasei DN-114 121 or Lactobacillus casei subsp. rhamnosus DN-116 010 with the yogurt ferment DN 543 043 described above, or the yogurt ferment DN 522 044, consisting of a strain of Streptococcus thermophilus (DN-001 143), Streptococcus thermophilus (DN-001 257) and a strain of Lactobacillus lactis (DN-111 224).
Lactobacillus casei subsp. rhamnosus DN-116 010 was inoculated at 5.8 10^7. CFU/ml.
DN 543 043 was inoculated at 2 10^6 CFU/ml for Streptococcus thermophilus DN-001 171; and 7 10^4 CFU/ml for Lactobacillus bulgaricus DN-100 182.
(§4) Fermentation was conducted at 36° C., and monitored by measuring the decrease of pH in the culture medium. Fermentation was stopped by transfering the preparation at 4° C. when a target pH of about 4.6 was reached.
(§5) The population of Lactobacillus casei subsp. paracasei was evaluated after 1 day (J+1) incubation at 10° C.

[2] = test system: Lactobacillus casei subsp. paracasei DN-114 121; test: Cell count of Lactobacillus casei subsp. paracasei co-cultured with yogurt ferments in dairy medium; type: cell-based; settings: for ratio count.Mn/count. J + 1 / ratio count.Mn/count. J + 3: Mn 20 mg/L vs without Mn; for Count ufc/ml at +10° C. J + 1 / Count ufc/ml at +10° C. J + 3: Mn 20 mg/L
Method: Medium A and medium B are inoculated with Lactobacillus casei subsp. paracasei DN-114 121 (3.80×10^7 CFU/ml), and a yogurt ferment (DN 542 142) consisting of: Streptococcus thermophilus DN-001 640 (10^6 CFU/ml), Streptococcus thermophilus DN-001 336 (2. 10^6 CFU/ml), Streptococcus thermophilus DN-001 236 (7. 10^5 CFU/ml) and Lactobacillus bulgaricus DN-100 290 (10^5 CFU/ml).
Fermentation was conducted at 36° C., and monitored by measuring the decrease of pH in the culture medium. Fermentation was stopped by transferring the preparation at 4° C. when a target pH of 4.6 was reached.
as §1, §2
Two yogurt ferments were tested in combination with Lactobacillus casei: DN 542 142 described above, and DN 543 043, consisting of a strain of Streptococcus thermophilus (DN-.001 171) and a strain of Lactobacillus bulgaricus (DN-100 182).
Lactobacillus casei subsp. paracasei DN-114 121 was inoculated at 3.8 10^7 CFU/ml.
DN 542 142 was inoculated at 10^6 CFU/ml for Streptococcus thermophilus DN-001 640; 2.10^6 CFU/ml for Streptococcus thermophilus DN-001 336; 7.10^5 CFU/ml for Streptococcus thermophilus DN-001 236, and 10^5 CFU/ml for Lactobacillus bulgaricus DN-100 290.
DN 543 043 was inoculated at 2.10^6 CFU/ml for Streptococcus thermophilus DN-001 171; and 7.10^4 CFU/ml for Lactobacillus bulgaricus DN-100 182.
Fermentation was conducted at 36° C., and monitored by measuring the decrease of pH in the culture medium. Fermentation was stopped by transferring the preparation at 4° C. when a target pH of about 4.6 (in the case of the co-culture with the yogurt ferment DN 542 142), or of about 4.45 (in the case of the co-culture with the yogurt ferment DN 543 043) was reached.
The population of Lactobacillus casei subsp. paracasei was evaluated after 1 day (J+1) and 3 days (J+3) incubation at 10° C.
as §3, §4, §5

[3] = test system: Streptococcus thermophilus and Lactobacillus bulgaricus; test: Acidification kinetics of the co-cultures (monitoring of yogurt bacteria growth by pH decrease); type: cell-based
Excerpt: The populations of Streptococcus thermophilus and Lactobacillus bulgaricus were not evaluated by cell counts, but by the evaluation of the acidification kinetics. It is well known that Streptococcus thermophilus and Lactobacillus bulgaricus grow faster in milk than L. casei and their lactic acid productions are directly correlated to their growth. Also, in the present invention, the monitoring of acidification corresponds to the monitoring of Streptococcus thermophilus and Lactobacillus bulgaricus growth.

[4] = addition of 20 mg/l of manganese, Example 1 co-cultures (DN 542 142 or DN 543 043 + DN-114 121)

Substance: monohydrate manganese sulfate [Mn]
- paracasei ou rhamnosus count. num. Mn/count. J + 1 ([1]; 20 mg/L Mn vs 0 mg/L Mn): 1.3
- Count ufc/ml at +10° C. Count. J + 1 paracasei ou rhamnosus ([1]; 20 mg/L Mn): 3.20E+08 ufc/ml
- paracasei ou rhamnosus count. num. Mn/count. J + 1 ([1]; 60 mg/L Mn vs 0 mg/L Mn): 1.3
- Count ufc/ml at +10° C. Count. J + 1 paracasei ou rhamnosus ([1]; 60 mg/L Mn): 3.30E+08 ufc/ml
- effect on the population of the bacteria of the L. casei group ([1]; Example 2, Lactobacillus casei ssp rhamnosus, 20, 60 mg/l manganese): selectively increases the population
- paracasei ou rhamnosus count. num. Mn/count. J + 1 ([2]; 522 044 + 114 121, 20 mg/L Mn vs 0 mg/L Mn): 2.3
- Count ufc/ml at +10° C. Count. J + 1 paracasei ou rhamnosus ([2]; 522 044 + 114 121, 20 mg/L Mn): 3.25E+08 ufc/ml
- ratio count.Mn/count. J + 1 ([2]; 542 142 + 114 121): 1.9
- ratio count.Mn/count. J + 3 ([2]; 542 142 + 114 121): 1.7
- Count ufc/ml at +10° C. J + 1 ([2]; 542 142 + 114 121): 1.15E+08 ufc/ml
- Count ufc/ml at +10° C. J + 3 ([2]; 542 142 + 114 121): 1.61E+08 ufc/ml
- paracasei ou rhamnosus count. num. Mn/count. J + 1 ([2]; 543 043 + 114 121, 0.5 mg/L Mn vs 0 mg/L Mn): 2.2
- Count ufc/ml at +10° C. Count. J + 1 paracasei ou rhamnosus ([2]; 543 043 + 114 121, 0.5 mg/L Mn): 2.99E+08 ufc/ml
- paracasei ou rhamnosus count. num. Mn/count. J + 1 ([2]; 543 043 + 114 121, 20 mg/L Mn vs 0 mg/L Mn): 2.3
- Count ufc/ml at +10° C. Count. J + 1 paracasei ou rhamnosus ([2]; 543 043 + 114 121, 20 mg/L Mn): 3.13E+08 ufc/ml
- paracasei ou rhamnosus count. num. Mn/count. J + 1 ([2]; 543 043 + 114 121, 60 mg/L Mn vs 0 mg/L Mn): 2.4
- Count ufc/ml at +10° C. Count. J + 1 paracasei ou rhamnosus ([2]; 543 043 + 114 121, 60 mg/L Mn): 3.25E+08 ufc/ml
- ratio count.Mn/count. J + 1 ([2]; 543 043 + 114 121): 1.9
- ratio count.Mn/count. J + 3 ([2]; 543 043 + 114 121): 2.1
- Count ufc/ml at +10° C. J + 1 ([2]; 543 043 + 114 121): 2.70E+08 ufc/ml
- Count ufc/ml at +10° C. J + 3 ([2]; 543 043 + 114 121): 3.00E+08 ufc/ml
- effect on the population of the bacteria of the L. casei group ([2]; Example 2, Lactobacillus casei ssp paracasei, 0.5, 20, 60 mg/l manganese): selectively increases the population
- effect on the population of Lactobacillus casei [2, 4]: selectively increases the population of Lactobacillus casei
- effect on the acidification kinetics of the co-cultures ([3]; Example 2 co-cultures, 0.5, 20, 60 mg/l manganese): no effect
- effect on the acidification kinetics of the co-cultures [3, 4]: no effect
